In patent publication US20080255143A1, “Inhibitors of Akt Activity” (SMITHKLINE BEECHAM CORPORATION, priority 2003, published 2008):
Where a name gives a salt, the structure may show the parent alone.

Key:
Type in all cases: biochemical
Conditions in all cases: catalytic domain, 10 nM activated enzyme, 4 uM ATP, 8 uM peptide, 40 minutes at room temperature
[1] = molecular target: T1, delta-PH AKT1 (Homo sapiens, UniProt P31749); experiment: AKT enzyme assay (substrate phosphorylation, SPA), AKT1
T1 construct: Insect cells expressing His-tagged AKT1 (aa 136-480) were lysed; His; made in house; host or cells: insect cells
Description: Insect cells expressing His-tagged AKT1 (aa 136-480) were lysed in 25 mM HEPES, 100 mM NaCl, 20 mM imidazole; pH 7.5 using a polytron (5 mLs lysis buffer/g cells). Cell debris was removed by centrifuging at 28,000×g for 30 minutes. The supernatant was filtered through a […] filter then loaded onto a nickel-chelating column pre-equilibrated with lysis buffer. The column was washed with 5 column volumes (CV) of lysis buffer then with 5 CV of 20% buffer B, where buffer B is 25 mM HEPES, 100 mM NaCl, 300 mM imidazole; pH 7.5. His-tagged AKT1 (aa 136-480) was eluted with a 20-100% linear gradient of buffer B over 10 CV. His-tagged AKT1 (136-480) eluting fractions were pooled and diluted 3-fold with buffer C, where buffer C is 25 mM HEPES, pH 7.5. […]
Compounds of the present invention were tested for AKT 1, 2, and 3 protein serine kinase inhibitory activity in substrate phosphorylation assays. […] Substrate phosphorylation was detected by the following procedure:
Assays were performed in 384 well U-bottom white plates. […] The reaction was stopped by the addition of 50 ul SPA bead mix (Dulbecco's PBS without Mg^2+ and Ca^2+, 0.1% Triton X-100, 5 mM EDTA, 50 uM ATP, 2.5 mg/ml Streptavidin-coated SPA beads.) The plate was sealed, the beads were allowed to settle overnight, and then the plate was counted in a Packard Topcount Microplate Scintillation Counter (Packard Instrument Co., Meriden, Conn.). […]

[2] = molecular target: T2, delta-PH AKT3 (Homo sapiens, UniProt Q9Y243); experiment: AKT enzyme assay (substrate phosphorylation, SPA), AKT3
T2 construct: His-tagged AKT2 (aa 138-481) and His-tagged AKT3 (aa 135-479) were isolated; His; made in house; host or cells: insect cells (only by 'in a similar fashion' to AKT1)
Description: (§1) His-tagged AKT2 (aa 138-481) and His-tagged AKT3 (aa 135-479) were isolated and purified in a similar fashion.
(§2) Compounds of the present invention were tested for AKT 1, 2, and 3 protein serine kinase inhibitory activity in substrate phosphorylation assays. This assay examines the ability of small molecule organic compounds to inhibit the serine phosphorylation of a peptide substrate. The substrate phosphorylation assays use the catalytic domains of AKT 1, 2, or 3. […] Substrate phosphorylation was detected by the following procedure:
(§3) Assays were performed in 384 well U-bottom white plates. […] The reaction was stopped by the addition of 50 ul SPA bead mix (Dulbecco's PBS without Mg^2+ and Ca^2+, 0.1% Triton X-100, 5 mM EDTA, 50 uM ATP, 2.5 mg/ml Streptavidin-coated SPA beads.) The plate was sealed, the beads were allowed to settle overnight, and then the plate was counted in a Packard Topcount Microplate Scintillation Counter (Packard Instrument Co., Meriden, Conn.).
(§4) The data for dose responses were plotted as % Control calculated with the data reduction formula 100*(U1-C2)/(C1-C2) versus concentration of compound where U is the unknown value, C1 is the average control value obtained for DMSO, and C2 is the average control value obtained for 0.1M EDTA. […]

[3] = molecular target: T3, delta-PH AKT2 (Homo sapiens, UniProt P31751); experiment: AKT enzyme assay (substrate phosphorylation, SPA), AKT2
T3 construct: His-tagged AKT2 (aa 138-481) and His-tagged AKT3 (aa 135-479) were isolated; His; made in house; host or cells: insect cells (only by 'in a similar fashion' to AKT1)
Description: as §1, §2, §3, §4

T3 sequence (P31751 138-481): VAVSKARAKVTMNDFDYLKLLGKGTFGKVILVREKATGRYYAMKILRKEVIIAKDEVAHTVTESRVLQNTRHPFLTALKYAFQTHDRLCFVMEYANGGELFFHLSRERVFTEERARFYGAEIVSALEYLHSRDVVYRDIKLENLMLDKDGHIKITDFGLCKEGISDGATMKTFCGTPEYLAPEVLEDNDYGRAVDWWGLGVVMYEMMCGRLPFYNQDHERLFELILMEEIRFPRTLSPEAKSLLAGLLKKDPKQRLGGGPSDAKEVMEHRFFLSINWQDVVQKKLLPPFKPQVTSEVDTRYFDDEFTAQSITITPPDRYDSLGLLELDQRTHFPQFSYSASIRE
T2 sequence (Q9Y243 135-479): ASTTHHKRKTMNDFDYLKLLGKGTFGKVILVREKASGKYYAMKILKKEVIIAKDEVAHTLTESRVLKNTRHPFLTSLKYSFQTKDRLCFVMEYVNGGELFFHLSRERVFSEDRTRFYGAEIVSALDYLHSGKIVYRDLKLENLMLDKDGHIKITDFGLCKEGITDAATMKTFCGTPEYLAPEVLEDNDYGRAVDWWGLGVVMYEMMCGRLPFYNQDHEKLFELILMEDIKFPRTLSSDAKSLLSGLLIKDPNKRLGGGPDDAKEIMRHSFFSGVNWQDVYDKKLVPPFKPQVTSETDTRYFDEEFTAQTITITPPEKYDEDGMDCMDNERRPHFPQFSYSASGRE
T1 sequence (P31749 136-480): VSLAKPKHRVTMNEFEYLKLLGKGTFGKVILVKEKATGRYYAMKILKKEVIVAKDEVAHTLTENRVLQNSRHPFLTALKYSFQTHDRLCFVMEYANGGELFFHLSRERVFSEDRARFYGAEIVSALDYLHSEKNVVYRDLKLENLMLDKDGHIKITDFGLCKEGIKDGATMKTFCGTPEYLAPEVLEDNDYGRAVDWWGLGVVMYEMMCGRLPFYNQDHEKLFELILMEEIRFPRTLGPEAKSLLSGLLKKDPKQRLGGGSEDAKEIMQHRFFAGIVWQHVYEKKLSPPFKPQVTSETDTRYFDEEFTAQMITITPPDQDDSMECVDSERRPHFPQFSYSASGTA

IC50 [1]: 0.069 µM | IC50 [2]: 0.032 µM | IC50 [3]: 0.038 µM
SMILES: CCn1c(-c2nonc2N)nc2c(-c3cccc(Cl)c3)ncc(NCCCNC[C@H](O)CO)c21 [Example 236, (S)-3-[3-[2-(4-amino-furazan-3-yl)-4-(3-chloro-phenyl)-1-ethyl-1H-imidazo[4,5-c]pyridin-7-ylamino]-propylamino]-propane-1,2-diol trifluoroacetate]
